Assay results taken from patent US11857601B2, “Pharmaceutical composition for cancer treatment comprising fusion protein including IL-2 protein and CD80 protein and anticancer drug” (GI INNOVATION, INC., priority 2020, dated 2024).

Tests used:
[1] = tested on: 4T1 cells; experiment: mGI-101 and Abemaciclib in 4T1 allotransplanted tumor model; type: in vivo, BALB/c mice; details: 11 mice per group
Description: (§1) 4T1 cells were purchased from ATCC (USA) and cultured in RPMI1640 medium (Gibco) containing 10% FBS (Gibco) and 1% antibiotic/antifungal agent (Gibco). The cultured cells were harvested using trypsin (Gibco) and then suspended in PBS. In order to establish an allotransplanted tumor model, 1×10^5 of 4T1 cells were subcutaneously injected into the back of BALB/c female mice (8-week-old).
A certain period of time after cell inoculation of the tumor grafts of the mice, the tumor volume was measured for animals with no abnormalities in the health condition of the animals, and the mice were randomly selected and assigned, each group including 11 mice.
(§2) The death of the mouse, the type of general symptoms, the date of onset, and the severity of symptoms were observed once a day during the test period, and recorded for each subject.
(§3) The tumor volume before administration of each subject was set as the value measured at the time of grouping, and the anti-tumor efficacy was evaluated as compared with the vehicle control.
(§4) All statistical calculations were performed using Prism 8.0 (Graph Pad Software Inc, USA). The comparison of tumor volume measurements was made through two-way analysis of variance followed by Tukey's multiple comparison test. A p value of less than 0.05 was considered significant.

[2] = tested on: 4T1 cells; experiment: mGI-101, anti-PD-L1 antibody and Docetaxel in 4T1 allotransplanted tumor model; type: in vivo, BALB/c mice
Text: This experiment was to evaluate the anticancer efficacy according to administration of the test substance mGI-101 alone or in combination with Docetaxel (Selleck Chemicals, cat. no. S1148) and the anti-PD-L1 antibody (BioXcell, cat. no. BE0101) in a tumor model allotransplanted with 4T1 cells (mouse breast cancer cells) into BALB/c mice.
4T1 cells were purchased from ATCC (USA) and cultured in RPMI1640 medium (Gibco) containing 10% FBS (Gibco) and 1% antibiotic/antifungal agent (Gibco). The cultured cells were harvested using trypsin (Gibco), and then a cell suspension was prepare with PBS and stored on ice until injected into mice. In order to establish an allotransplanted tumor model, after identifying the location of the second mammary fat pad from the upper right of the ventral region of BALB/c female mice (8-week-old), 4T1 cell line prepared inside the mammary fat pad was injected at 4×10^4 cells/40 μl/head.
A certain period of time after cell inoculation of the tumor grafts of the mice, the tumor volume was measured for animals with no abnormalities in the health condition of the animals, and the subjects were selected so that the average of each group reached less than 70-100 mm^3, and the selected animals were assigned as evenly as possible based on tumor volume and body weight, each group including 10 animals.
Docetaxel was dissolved in 100% DMSO, and then the volume was adjusted with 5% of DMSO, 30% of PEG300, 5% of Tween 80, and 60% of distilled water for injection (DMSO PEG300: Tween 80: distilled water for injection=5%: 30%: 5%: 60% (v:v:v:v)) and prepared.
The Anti-PD-L1 antibody was prepared and administered using 1×PBS in consideration of dosage amount and volume. […]
The tumor volume before administration of each subject was set as the value measured at the time of grouping, and the anti-tumor efficacy was evaluated as compared with the vehicle control. […]

[3] = tested on: Renca cells; experiment: mGI-101 and Lenvatinib in Renca allotransplanted tumor model; type: in vivo, BALB/c mice; details: mGI-101 twice a week (BIW), Lenvatinib daily, 10 mice per group
Description: as §1, with “Renca” for “4T1”, “5×10^6 Renca” for “1×10^5 of 4T1”
A certain period of time after cell inoculation of the tumor grafts of the mice, the tumor volume was measured for animals with no abnormalities in the health condition of the animals, and the mice were randomly selected and assigned, each group including 10 mice.
as §2, §3, §4

[4] = tested on: CT26 cells; experiment: mGI-101 and Lenvatinib in CT26 allotransplanted tumor model; type: in vivo, BALB/c mice
Description: as §1, with “CT26” for “4T1”, “1×10^6 CT26” for “1×10^5 of 4T1”, “right flank” for “back”, “(7-week-old).” for “(8-week-old).”
A certain period of time after the cell transplantation, the tumor volume was measured for animals with no abnormalities in the health condition of the animals, and the mice were assigned so that the average tumor volume of each group was less than 70-100 mm^3, each group including 10 mice.
In the case of Lenvatinib powder, the dose was calculated and weighed, and it was prepared to the dose concentration using a 0.5% methyl cellulose excipient. In order to minimize the loss of the test substance, the doses for 3 or 4 days were weighed, and prepared using the excipient on the day of administration and injected.
Clinical symptoms such as a disease and a behavioral change were observed once a day during the test period, and deceased animals were identified, and the mice were sacrificed when the tumor size reached a size of 4,000 mm^3.
The tumor volume before administration of each subject was set as the value measured at the time of grouping.
as §4

[5] = tested on: CD8+ T cells and CD4+/FoxP3+ Treg cells; experiment: Proliferation of CD8+ T cells and Treg cells in PBMCs (Exp. Ex. 10); type: cell-based, human; details: for proportion of CD8+ T cells: anti-CD3ε 1 μg/ml, 7 days, compared with no stimulus, anti-CD3 antibody alone and GI101C1; for proliferation of CD4+/FoxP3+ Treg cells: compared with no stimulus and anti-CD3 antibody alone
Description: Human PBMCs were purchased from Allcells (Lot #3014928, USA). […] CellTrace CFSE dye was used, which was reacted with the human PBMCs under a light-blocking condition at […] for 20 minutes. The cells were labeled with CFSE by being reacted with 1 μM CellTrace CFSE dye at 37° C. for 20 minutes. CFSE not bound to the cells was removed by being reacted for 5 minutes with a culture medium having a 5-fold volume of the staining reaction solution and then by being centrifuged at 1,300 rpm for 5 minutes. The CFSE-labeled PBMCs were resuspended in the culture medium (RPMI1640 medium containing 10% fetal bovine serum, 10 mM HEPES, 100 U/ml penicillin/streptomycin, 1 mM sodium pyruvate, 55 μM 2-mercaptoethanol, 1 mM non-essential amino acid, and 2 mM L-glutamine), and then added to a 96-well microplate at 1×10^5 cells per well.
The incubated cells were examined for their degree of proliferation by measuring, with FACS analysis using anti-human CD4-PE antibody (BioLegend, USA), anti-human CD8-PE/Cy7 antibody (BioLegend, USA), and anti-human FoxP3-APC antibody (BioLegend, USA), a proportion of CD8+ T cells that had not been labeled with CFSE.

[6] = tested on: HCT116 cells; experiment: Cancer cell killing, GI-101 and Pertuzumab, HCT116 with NK cells; type: cell-based, human; details: GI-101 0.4-100 nM, Pertuzumab 16.9 nM, 24 hours
Text: This experiment was to evaluate the effect of killing cancer cells by treating HCT116 cells (human colon cancer cells) with the test substance GI-101 alone or in combination with Pertuzumab substance in an in vitro environment.
HCT116 cells were purchased from the Korea cell line bank and cultured in McCoy's 5A medium (ATCC) containing 10% FBS (Gibco) and 1% antibiotic/antifungal agent (Gibco). For use in cancer cell killing test, the cells were harvested using trypsin (Gibco), and then suspended in McCoy's 5A medium, and then dead cells and debris were removed using Ficoll (GE Healthcare Life Sciences) solution. The cells suspended in McCoy's 5A medium were carefully layered on ficoll solution. […]
In order to identify the effect of killing the cells, a CytoTox Green reagent ([…]™ CytoTox Green, Satorius) that binds to the DNA of cells to be killed was prepared in 1 μl per 1 mL of RPMI1640 medium containing 5% human AB serum (Sigma). The prepared medium was used for dilution of the test substance, and the effect of killing the cells could be quantitatively identified by staining the cells to be killed when the test substance was co-cultured with cancer cell lines and PBMCs. […]

[7] = 4T1, end of the test, 10 animals per group
[8] = end of the experiment, 10 mice per group

Compound: CCN1CCN(Cc2ccc(Nc3ncc(F)c(-c4cc(F)c5nc(C)n(C(C)C)c5c4)n3)nc2)CC1 [Abemaciclib, reference compound]
- number of mice with tumor growth inhibition rate of 30% or more [1]: 4 mice
- number of mice with tumor growth inhibition rate of 50% or more [1]: 1 mice
- number of mice with tumor growth inhibition rate of 80% or more [1]: 1 mice

Compound: CC(=O)O[C@@]12CO[C@@H]1C[C@H](O)[C@@]1(C)C(=O)[C@H](O)C3=C(C)[C@@H](OC(=O)[C@H](O)[C@@H](NC(=O)OC(C)(C)C)c4ccccc4)C[C@@](O)([C@@H](OC(=O)c4ccccc4)[C@H]21)C3(C)C [Docetaxel]
- number of mice with tumor growth inhibition rate of 30% or more [2, 7]: 5 mice
- number of mice with tumor growth inhibition rate of 50% or more [2, 7]: 1 mice
- anticancer effect (tumor size) compared with the control ([2]; day 14, Docetaxel 15 mg/kg, mGI-101 3 mg/kg, aPD-L1 10 mg/kg i.p. QW): statistically significant anticancer effect

Compound: COc1cc2nccc(Oc3ccc(NC(=O)NC4CC4)c(Cl)c3)c2cc1C(N)=O [Lenvatinib]
- number of mice with tumor growth inhibition rate of 30% or more [3]: 4 mice
- number of mice with tumor growth inhibition rate of 50% or more [3]: 2 mice
- number of mice with tumor growth inhibition rate of 80% or more [3]: no mouse
- number of mice with tumor growth inhibition rate of 30% or more [4, 8]: 6 mice
- number of mice with tumor growth inhibition rate of 50% or more [4, 8]: 4 mice
- number of mice with tumor growth inhibition rate of 80% or more [4, 8]: 1 mice
- anticancer effect (tumor size) compared with the control ([4]; mGI-101 3 mg/kg i.v. QW, Lenvatinib 3 mg/kg p.o. daily, Lenvatinib day 18, 21, combination day 16, 18, 21): statistically significant anticancer effect

Compound: GI101C2: comparative fusion protein: Fc domain, linker, IL-2 variant (2M) (R38A, F42A); SEQ ID NO: 19
- proportion of CD8+ T cells [5]: significant increase
- proliferation of CD4+/FoxP3+ Treg cells [5]: significant increase

Compound: Pertuzumab: Her2 inhibitor [reference compound]
- effect of killing cancer cells [6]: effect of killing cancer cells was not shown

Compound: Proleukin: Proleukin (Novartis, hIL-2); human recombinant IL-2 [reference compound]
- proportion of CD8+ T cells [5]: significant increase
- proliferation of CD4+/FoxP3+ Treg cells [5]: significant increase
